Activity calls are given as the source filed them.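 The calls were made as follows: active = fitted half-maximal concentration for changing reporter fluorescence at or below a set limit; inactive = the rest.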
Target: Citrate synthase, peroxisomal (Saccharomyces cerevisiae (strain ATCC 204508 / S288c)) (UniProt P08679)
Assay: CIT2-GFP expression modulators in yeast, dose response, flow cytometry, MLPCN hits (AID 2744)
Conditions: S. cerevisiae CIT2-GFP strain, 3 h; for GFP fluorescence, higher = induction: at 33 µM (top of the series); for EC50: flow cytometry fluorescence

Citrate synthase, peroxisomal (Saccharomyces cerevisiae (strain ATCC 204508 / S288c)), sequence (P08679 whole entry, looked up): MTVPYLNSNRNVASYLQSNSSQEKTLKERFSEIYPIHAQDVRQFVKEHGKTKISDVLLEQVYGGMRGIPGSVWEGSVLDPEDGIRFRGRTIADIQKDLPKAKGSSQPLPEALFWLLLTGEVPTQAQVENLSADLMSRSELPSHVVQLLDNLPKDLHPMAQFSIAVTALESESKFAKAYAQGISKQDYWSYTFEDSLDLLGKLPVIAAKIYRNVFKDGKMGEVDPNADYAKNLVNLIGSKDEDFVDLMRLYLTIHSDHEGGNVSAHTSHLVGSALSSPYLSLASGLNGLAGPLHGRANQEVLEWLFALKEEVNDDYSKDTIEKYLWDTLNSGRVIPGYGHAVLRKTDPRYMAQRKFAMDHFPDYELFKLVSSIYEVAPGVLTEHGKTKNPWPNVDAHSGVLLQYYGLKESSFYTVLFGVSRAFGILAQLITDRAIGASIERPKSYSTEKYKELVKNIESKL

| SMILES | GFP fluorescence, higher = induction | EC50 |
| --- | --- | --- |
| C[n+]1ccc(/C=C/c2c[nH]c3ccccc23)cc1 | inactive |  |
| Cn1ncc(S(=O)(=O)Cc2ccccc2)c(Cl)c1=O | inactive |  |
| O=c1cc(-c2ccccc2)cc(-c2ccccc2)n1O | inactive |  |
| Cc1ccc(C(=O)Sc2cccccc2=O)cc1 | inactive |  |
| CCOc1ccccc1/C=c1\sc2ncnn2c1=O | inactive |  |
| COc1cc(N=c2ssnc2Cl)cc(OC)c1 | inactive |  |
| CSc1nnc2c3cc(F)ccc3n(C)c2n1 | inactive |  |
| C#CCOCCOCCOCCNc1nc(N2CCN(C(=O)CCCCCCCCCCNC(=O)[C@H](CCCCN)n3cc(C)nn3)CC2)nc(N2CCN(C(=O)CCCCCCCCCCNC(=O)[C@H](CCCN=C(N)N)n3cc(C[C@@H](C)CC)nn3)CC2)n1 | inactive |  |
| Cc1ccc(C(=O)O)cc1N=Cc1cc(Br)cc(Br)c1O | inactive |  |
| COc1cc(SSc2cc(OC)cc([N+](=O)[O-])c2N)c(N)c([N+](=O)[O-])c1 | inactive |  |
| O=C1C=C(c2ccc(Cl)cc2)C(=O)N1Nc1ccccc1 | inactive |  |
| Clc1cccc(CN2COc3c(cc(Cl)c4cccnc34)C2)c1 | inactive |  |
| O=C(NC(=S)NNC(=O)c1cnccn1)c1ccc(F)cc1 | inactive |  |
| CC(Oc1ccc(Br)cc1)C(=O)Nc1nc(-c2ccccn2)cs1 (stereo unspecified) | inactive |  |
| CN(C)c1ccc(N=Cc2nc(-c3ccccc3)oc2OC(=O)c2ccccc2)cc1 | inactive |  |
| COc1ccc(N2C(=O)/C(=C/c3cccs3)C(=O)NC2=S)cc1 | inactive |  |
| COc1ccc2c(/C=C/c3cc[n+](C)cc3)c[nH]c2c1 | inactive |  |
| N/C(=N\OC(=O)c1ccccc1Cl)c1ccc(Cl)cc1 |  | 6.14 µM |
| COc1cccc2c(=O)c(C(=O)NCc3cccs3)c[nH]c12 | inactive |  |
| O=C(Nc1ccc(Cl)cc1)ON=C1CCCC1 |  | 1.23 µM |
| N=C1S/C(=C\c2ccco2)C(=O)N1c1nccs1 | inactive |  |
| O=C1C=C(Nc2ccc(Cl)cc2)C(=O)N1c1ccc(Cl)cc1 | inactive |  |
| Cc1cc(C)c2c(c1)/C(=C/C(=O)c1ccc(Br)s1)C(=O)N2 | inactive |  |
| COC(=O)CCCC1=CC2=CC(=O)C(C)(OC(=O)CCc3ccccc3)C(=O)C2=CO1 (stereo unspecified) | inactive |  |

| SMILES | GFP fluorescence, higher = induction | EC50 |
| --- | --- | --- |
| CCc1ccc(/C=C/C(=O)c2cc(Br)ccc(=O)c2O)cc1 | inactive |  |
| O=C(Cc1ccc(Cl)cc1)NNC(=S)NC(=O)c1cccs1 | inactive |  |
| COc1ccc(N/N=C(\C#N)C(N)=O)cc1 | inactive |  |
| O=C1c2ccccc2C(=O)C2OC12 (stereo unspecified) | inactive |  |
| Cc1cc(C2CCCCC2)n(O)c(=O)c1 | inactive |  |
| Cc1c(NC2=C(Cl)C(=O)N(c3ccccc3Cl)C2=O)c(=O)n(-c2ccccc2)n1C | inactive |  |
| COc1ccc(-c2cc3cc(C(=O)O)ccn3c2C(=O)c2ccccc2)cc1 | inactive |  |
| O=c1c(-c2ccc(Cl)cc2)[n+]([O-])c2ccccc2n1O | inactive |  |
| COc1ccccc1N=Cc1nc(-c2ccccc2)oc1OC(C)=O | inactive |  |
| Cc1c(C(=O)Nc2nc(-c3ccccn3)cs2)oc2ccccc12 | inactive |  |
| CCN(CC(=O)NC(C)(C)C)C(=O)COc1c(Cl)cc(Cl)c2ccc(C)nc12 | inactive |  |
| Cc1cc(C)c(S(=O)(=O)ON2C(=O)c3ccccc3C2=O)cc1C | inactive |  |
| O=C1N(c2ccccc2C(F)(F)F)OC1(Cc1ccccc1)c1ccccc1 (stereo unspecified) | inactive |  |
| Cc1ccc(N/N=C(\C#N)C(N)=S)c(C)c1 | inactive |  |
| COc1ccc(CCNC2=C(Cl)C(=O)N(CCc3ccccc3)C2=O)cc1OC | inactive |  |
| O=C(/C=C/Sc1ncn[nH]1)c1ccc(Cl)cc1 | inactive |  |
| CCOC(=O)c1ccc(N=Cc2nc(-c3ccccc3)oc2OC(C)=O)cc1 | inactive |  |
| O=C1C=CC(=O)N1N(c1ccccc1)c1ccccc1 | inactive |  |
| Cc1ccc(C(=O)O/N=C(\N)Cc2cccs2)c(Cl)c1 | inactive |  |
| Oc1c(I)cc(I)c2cccnc12 | inactive |  |
| COc1ccc(-c2cc3nc4n(c(=O)c3s2)CCC4)cc1 | inactive |  |
| CCOC(=O)C(C(=O)OCC)C(C(=O)OCC)N1CCOCC1 (stereo unspecified) | inactive |  |
| O=C(OCC(=O)N1CCN(C(=O)c2ccco2)CC1)c1cc(-c2ccc(Cl)c(Cl)c2Cl)nc2ccccc12 | inactive |  |
| O=[N+]([O-])c1cc(CN2CCN(c3cccc(C(F)(F)F)c3)CC2)c2cccnc2c1O | inactive |  |

| SMILES | GFP fluorescence, higher = induction | EC50 |
| --- | --- | --- |
| COc1ccc(CCNC2=C(Cl)C(=O)N(CCc3ccc(OC)c(OC)c3)C2=O)cc1OC | inactive |  |
| O=C(/C=C/c1ccc(F)cc1)NC(=S)NNC(=O)c1cnccn1 | inactive |  |
| Cc1sc(/C=C2\C(=O)ON=C2c2ccccc2)cc1Br | inactive |  |
| O=C1NC(=S)NC(=O)C1=Cc1ccc2c(c1)CCN2CCCCl | inactive |  |
| Nc1ccccc1C#CC(=O)c1ccccc1 | inactive |  |
| O=C1C2C3C=CC(CO)(O3)C2C(=O)N1c1ccc(-c2ccccc2)cc1 (stereo unspecified) | inactive |  |
| Cc1ccc(-c2nc(C)sc2CC(=O)Nc2nnc(C)s2)cc1 | inactive |  |
| CCN(CC)c1ccc(/C=C2/C(=O)c3ccc(C(=O)O)cc3C2=O)cc1 | inactive |  |
| Nc1ccc2ccc3cccc[n+]3c2c1 | inactive |  |
| Cc1cccc(N=Nc2ccc(O)c3ncccc23)c1 | inactive |  |
| O=C1NC(=O)N(c2ccccc2)C(=O)/C1=C/c1ccc(Sc2ccccc2)o1 | inactive |  |
| CCCOc1ccc(C(=O)NNC(=S)NC(=O)c2ccccc2)cc1 | inactive |  |
| Oc1c(CN2CCN(c3ccc(F)cc3)CC2)cc(Cl)c2cccnc12 | inactive |  |
| COc1cc(C=C2C(=O)c3ccccc3C2=O)cc(OC)c1 | inactive |  |
| CC(C)(C)n1nc(-c2ccc(Cl)cc2)c2c(N)ncnc21 | inactive |  |
| COC(=O)c1cc(N2C(=O)C3C(C2=O)C2(C)C=CC3(C)O2)ccc1Cl (stereo unspecified) | inactive |  |
| COc1cccc(/C=C2\SC(=S)N(CCCC(=O)Nc3ccc(C(=O)O)cc3)C2=O)c1 | inactive |  |
| CC(C)(C)c1ccc(NC(=O)COC(=O)c2ccc([N+](=O)[O-])s2)cc1 | inactive |  |
| Cc1ccc(NC(=O)c2nc(S(=O)(=O)Cc3ccccc3)ncc2Cl)cc1 | inactive |  |
| N/C(Cc1ccc(Cl)cc1Cl)=N\OC(=O)c1ccccc1 | inactive |  |
| CCOC(=O)c1c(C)oc2c1c(C(c1cccnc1)N1CCOCC1)c(O)c1ccccc12 (stereo unspecified) | inactive |  |
| O=C(c1ccc(C(=O)N2CCCc3ccccc32)s1)N1CCCc2ccccc21 | inactive |  |
| O=C1c2cccc3c([N+](=O)[O-])ccc(c23)C(=O)N1O | inactive |  |
| COc1cccc(/C=N/Nc2ncc(C(F)(F)F)cc2Cl)c1O | inactive |  |

| SMILES | GFP fluorescence, higher = induction | EC50 |
| --- | --- | --- |
| COc1cc(/C=C/c2ccc3c(Br)cc(Br)c(O)c3n2)ccc1O | inactive |  |
| N=C1/C(=C\c2coc3ccccc3c2=O)C(=O)N=C2SC(c3ccncc3)=NN12 |  | 13 µM |
| CCC(C)/C(C)=N/NC(=O)c1ccc(COc2ccc(Cl)c(C)c2)cc1 (stereo unspecified) | inactive |  |
| O=C(Oc1oc(-c2ccco2)nc1C=Nc1ccccc1)c1ccoc1 | inactive |  |
| C=CCN1C(=O)/C(=C/c2ccc(-c3ccc(F)cc3)o2)SC1=S | inactive |  |
| Cc1cccc(C(=O)NC(=S)NNC(=O)Cc2ccccc2)c1 | inactive |  |
| COC(CNC(=O)c1ccc2c3c(onc13)-c1ccccc1C2=O)OC | inactive |  |
| N#Cc1ccc(N=c2ssnc2Cl)cc1 | inactive |  |
| COc1cc(/C=C2\CC/C(=C\c3cc(OC)c(O)c(OC)c3)C2=O)cc(OC)c1O | inactive |  |
| CC(C)(C)C1C/C(=C/c2ccccn2)C(=O)/C(=C/c2ccccn2)C1 (stereo unspecified) | inactive |  |
| Cc1ccc(C)c(/C=C/C(=O)c2ccccc(=O)c2O)c1 | inactive |  |
| COc1ccc(C(=O)/C=C2/C(=O)Nc3ccccc32)cc1OC | inactive |  |
| CC(c1ccccc1)N1C(=O)/C(=C/c2ccncc2)SC1=S (stereo unspecified) | inactive |  |
| CC1=C/C(=N\OS(=O)(=O)c2ccccc2)C(C(C)C)=CC1=O | inactive |  |
| CC(C)C[C@]1(c2ccccc2)ON(c2ccccc2C(F)(F)F)C1=O | inactive |  |
| CCSc1nnc(NC(=O)c2ccccn2)s1 | inactive |  |
| CC(=O)Oc1ccc(N2C(=O)C3C4C=CC(CO)(O4)C3C2=O)cc1 (stereo unspecified) | inactive |  |
| Cc1c(Br)c(=O)oc2c(Br)c(O)c(O)cc12 | inactive |  |
| O=c1c2sc(-c3ccccc3)cc2nc2n1CCC2 | inactive |  |
| COc1ccc(-c2cc(C(F)(F)F)nc(S(C)(=O)=O)n2)cc1 | inactive |  |
| N/C(=N\OC(=O)c1ccc(Cl)cc1Cl)c1ccccc1 |  | 4.16 µM |
| Cc1ccccc1N=Nc1ccc(O)c2ncccc12 | inactive |  |
| COc1ccc(N=Cc2nc(-c3ccccc3)oc2OC(C)=O)cc1 | inactive |  |
| COc1cccc2cc(-c3nc4ccccc4o3)c(=O)oc12 | inactive |  |

— PubChem BioAssay AID2744 (NMMLSC, 2010)
